According to patent publication US10583162B2, “Compositions useful in the prevention and/or treatment of osteoarticular inflammation and pain and cartilage damage” (Indena S.P.A., priority 2016, dated 2020):

What was measured:
[1] = tested on: patients suffering from joint disease of the knee with constant pain; assay: Analgesic activity on analogue pain scale 0 to 10 (Example 6); type: in vivo, Humans; conditions: second day
Source text: 40 patients suffering from joint disease of the knee with constant pain were randomised and treated with two tablets a day, one in the morning and one in the evening, of the composition of example 4, or a placebo (consisting of the carrier only), or the ingredients of the composition of example 1 added individually to the placebo formulation in amounts equal to those present in the composition of example 4.
Efficacy was scored on an international analogue pain scale with scores from 0 to 10, 10 points indicating maximum pain and 0 the disappearance of pain. The effect was evaluated on the second day after administration of the tablet, in the morning 60 and 120 minutes after treatment.

[2] = tested on: patients with osteoarthritis, mainly located in the knee; assay: Blinded study vs piroxicam and placebo, analgesic effect on WOMAC scale (Example 5); type: in vivo, Humans
Source text: The analgesic activity of a composition according to the invention comprising Vitis vinifera extract complexed with phospholipids, lipophilic extract of Zingiber officinale, lipophilic extract of Zanthoxylum piperitum and an unsaponifiable fraction of Olea europaea was compared with the activity of piroxicam and a placebo. In a blinded study conducted on 180 patients with osteoarthritis, mainly located in the knee, the composition of example 1 was compared with piroxicam and a placebo by conducting a three-month treatment after randomisation, and check-ups on the joint function for six months after discontinuance of the treatment. At the beginning, the analgesic effect, measured with the Western Ontario and McMaster University Osteoarthritis (WOMAC) scale, was evaluated after 7 days' treatment with two capsules/day of the composition of example 1 vs. two […] capsules of piroxicam or placebo. After the first 7 days, the treatment continued for three months, the analgesic effect being measured once a month.

SMILES: CC(=O)Oc1cccc2c1C(=O)c1c(OC(C)=O)cc(C(=O)O)cc1C2=O [Diacerein, diacerein]
- Pain (scores) at time 60 min. ([1]; 60 minutes after treatment): 8.2 ± 0.9
- Pain (scores) at time 120 min. ([1]; 120 minutes after treatment): 7.9 ± 0.8
- Pain (scores) at time 0 ([1]; time 0 (before the morning tablet)): 9.1 ± 1.5

SMILES: CN1C(C(=O)Nc2ccccn2)=C(O)c2ccccc2S1(=O)=O [piroxicam]
- result (analgesic effect, WOMAC scale) ([2]; 4th month, after discontinuance of the treatment): −41%+/−38
- result (analgesic effect, WOMAC scale) ([2]; 5th month, after discontinuance of the treatment): −24%+/−23
- efficacy maintained after discontinuance of the treatment ([2]; double-blind trial, after discontinuance): needed to continue the treatment
- result (analgesic effect, WOMAC scale) ([2]; during the third month's treatment, two capsules/day): −72%+/−31.4
- tolerability ([2]; three-month treatment): had to be discontinued due to evident side effects
- analgesic effect (comparison of the two treated groups) ([2]; three-month treatment, WOMAC): comparable analgesic effect
